Our source for the Activity, Kd and EC50 values is ChEMBL document CHEMBL1152888, “Synthesis, pharmacological and in silico evaluation of 1-(4-di-hydroxy-3,5-dioxa-4-borabicyclo[4.4.0]deca-7,9,11-trien-9-yl)-2-(tert-butylamino)ethanol, a compound designed to act as a beta2 adrenoceptor agonist” (Eur J Med Chem, 2009).

For assay [1], the target named is Beta-2 adrenergic receptor (Cavia porcellus) (UniProt Q8K4Z4). Briefly: Agonist activity at adrenergic beta2 receptor in Hartley guinea pig tracheal ring assessed as bronchorelaxation activity against histamine-induced contraction in presence of propranolol. The assay is classed as functional, tissue-based. The settings on record: Trachea.
Chain of Beta-2 adrenergic receptor (Cavia porcellus) (Q8K4Z4 whole entry, looked up): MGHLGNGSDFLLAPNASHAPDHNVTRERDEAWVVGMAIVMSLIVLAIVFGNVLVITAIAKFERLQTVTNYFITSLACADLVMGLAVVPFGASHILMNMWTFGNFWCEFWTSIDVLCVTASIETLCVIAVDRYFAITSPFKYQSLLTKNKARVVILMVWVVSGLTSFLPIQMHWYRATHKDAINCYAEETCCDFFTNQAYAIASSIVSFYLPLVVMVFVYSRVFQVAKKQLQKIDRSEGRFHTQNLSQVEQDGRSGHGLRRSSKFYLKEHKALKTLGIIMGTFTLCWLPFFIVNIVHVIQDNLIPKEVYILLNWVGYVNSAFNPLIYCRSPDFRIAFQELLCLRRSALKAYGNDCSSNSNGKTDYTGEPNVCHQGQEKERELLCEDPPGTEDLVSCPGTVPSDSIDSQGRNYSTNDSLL
Assay [2] has the same target. Briefly: Agonist activity at adrenergic beta2 receptor in Hartley guinea pig tracheal ring assessed as bronchorelaxation activity against histamine-induced contraction in presence of ICI-118551. It counts as functional, tissue-based. Conditions: Trachea.
Assay [3] shares this target. Briefly: (§1) Agonist activity at adrenergic beta2 receptor in Hartley guinea pig tracheal ring assessed as bronchorelaxation activity against carbachol-induced contraction. The settings on record: Trachea. It counts as functional, tissue-based.
Assay [4] has the same target. The assay can be described thus: (§2) Agonist activity at adrenergic beta2 receptor in Hartley guinea pig tracheal ring assessed as bronchorelaxation activity against histamine-induced contraction. It counts as functional, tissue-based. Conditions: Trachea.
For assay [5], the target named is Beta-2 adrenergic receptor (Homo sapiens, UniProt P07550).
Chain of Beta-2 adrenergic receptor (Homo sapiens, UniProt P07550) (P07550 whole entry): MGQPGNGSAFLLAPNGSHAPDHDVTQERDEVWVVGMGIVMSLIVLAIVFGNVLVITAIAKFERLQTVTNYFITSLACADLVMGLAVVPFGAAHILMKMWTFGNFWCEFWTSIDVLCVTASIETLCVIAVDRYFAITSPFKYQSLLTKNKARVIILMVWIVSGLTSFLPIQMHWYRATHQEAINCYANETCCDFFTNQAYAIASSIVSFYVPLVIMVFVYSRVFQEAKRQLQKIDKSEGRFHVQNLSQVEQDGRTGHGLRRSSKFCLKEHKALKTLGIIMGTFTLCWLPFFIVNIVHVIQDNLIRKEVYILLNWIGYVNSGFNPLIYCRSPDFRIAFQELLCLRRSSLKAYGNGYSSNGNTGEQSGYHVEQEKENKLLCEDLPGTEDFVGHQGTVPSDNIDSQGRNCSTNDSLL
Description: Binding affinity to human adrenergic beta2 receptor
For assay [6], the target named is Beta-2 adrenergic receptor (Cavia porcellus) (UniProt Q8K4Z4). The assay can be described thus: Agonist activity at adrenergic beta2 receptor in Hartley guinea pig tracheal ring assessed as maximum bronchorelaxation activity against histamine-induced contraction at 1 uM. The assay is classed as functional, tissue-based. The settings on record: Trachea.
The target in assay [7] is T1, Beta-2 adrenergic receptor (Cavia porcellus, UniProt Q8K4Z4). The assay can be described thus: Binding affinity to adrenergic beta2 receptor in Hartley guinea pig tracheal ring.
T1 sequence (Q8K4Z4 whole entry): as the sequence (Q8K4Z4 whole entry, looked up) above
The target of assay [8] is T1, Beta-2 adrenergic receptor. The assay is described as §1. It counts as functional, tissue-based, Trachea.
Assay [9] deals with Beta-2 adrenergic receptor (Cavia porcellus) (UniProt Q8K4Z4). Briefly: Agonist activity at adrenergic beta2 receptor in Hartley guinea pig tracheal ring assessed as maximum bronchorelaxation activity against carbachol-induced contraction at 1 uM. The assay is classed as functional, tissue-based. Conditions: Trachea.
In assay [10] the target is T1, Beta-2 adrenergic receptor. The assay is described as §2. The assay is classed as functional, tissue-based, Trachea.

Structures are written as SMILES. Calls of active or inactive are those of the source. The calls are words filed in the database; no cut-off is given here.

Regarding `CC(C)(C)NCC(O)c1ccc(O)c(CO)c1` (centres undefined), the outcome in assay [1] and in assay [2] was inactive. For the same molecule, the Activity result in assay [3] and in assay [4] was “Dose-dependent effect” each time.

Turning to `CC(C)NCC(O)c1cc(O)cc(O)c1` (centres undefined) [METAPROTERENOL], in [5], the affinity, expressed as Kd, was 4810 nM. This counts as single-digit micromolar.

On to `CC(C)(C)NC[C@@H](O)c1ccc(OB(O)O)c(CO)c1`, for which the result in assay [1] and in [2] was inactive. In addition, the result in assay [6] and in assay [9] was Active. Besides, the Kd in [7] came out at 110 nM. Moreover, the EC50 in [8] turned out to be 2.1 nM; in [10], 0.072 nM. Besides, the Activity result in [3] and in assay [4] was “Dose-dependent effect” throughout.
